# Assay results taken from US4057636A, “Antihypertensive pyridylguanidine compounds” (Leo Pharmaceutical Products Ltd. A/S, priority 1974, dated 1977).
# How the values were obtained:
# in vivo = conditions: mouse
# [1] = system: conscious spontaneously hypertensive rats; experiment: Antihypertensive activity in conscious spontaneously hypertensive rats; assay type: in vivo, rat (spontaneously hypertensive Okamoto strain)
# Description: Male albino rats, spontaneously hypertensive Okamoto strain, fasting 16 hours before the experiments were used. The conscious animals were restrained in a plastic cage and a cuff was secured around the tail. The cuff was connected with an electronic blood pressure recorder. The systolic blood pressure and the heart rate were measured before and 2, 4, 6, and 24 hours after the administration of compounds. The compounds were suspended or dissolved in carboxymethylcellulose 0.5%. […] There are also included, for comparison, the results obtained under the same experimental conditions with some known antihypertensive drugs, and the approximate oral LD50 in mice are stated.
# [2] = system: conscious normotensive dogs; experiment: Hypotensive activity in conscious normotensive dogs; assay type: in vivo, dog (mongrel); conditions: 0.1 mg/kg oral
# Description: Hypotensive activity in conscious normotensive dogs
# Mongrel dogs of both sexes, fasting 16 hours before the experiment were used. […] The compounds were orally administered in gelatine capsules.
structure (smiles),measurement,setting,value
"CCC(CC)(CC)NC(=NC#N)Nc1cccnc1 [P 1068, N""-cyano-N-(1,1-diethylpropyl)-N'-3-pyridylguanidine]",LD50,"in vivo; po, p.o. (mice), approximate",> 1000 mg/kg
same,BP,"[1]; 0.5 mg/kg, 2 hours",131 mm Hg
same,HR,"[1]; 0.5 mg/kg, 2 hours",473 beats/minute
same,BP,"[1]; 0.5 mg/kg, 4 hours",146 mm Hg
same,HR,"[1]; 0.5 mg/kg, 4 hours",437 beats/minute
same,BP,"[1]; 0.5 mg/kg, 24 hours",180 mm Hg
same,HR,"[1]; 0.5 mg/kg, 24 hours",383 beats/minute
"NNc1nncc2ccccc12 [Hydralazine, reference compound]",LD50,"in vivo; mice, oral, printed with (114-130)",122 mg/kg
same,BP,"[1]; 2.0 mg/kg, 2 hours",162 mm Hg
same,HR,"[1]; 2.0 mg/kg, 2 hours",425 beats/minute
same,BP,"[1]; 2.0 mg/kg, 4 hours",163 mm Hg
same,HR,"[1]; 2.0 mg/kg, 4 hours",413 beats/minute
same,BP,"[1]; 2.0 mg/kg, 24 hours",174 mm Hg
same,HR,"[1]; 2.0 mg/kg, 24 hours",379 beats/minute
same,BP,"[1]; 5.0 mg/kg, 2 hours",150 mm Hg
same,HR,"[1]; 5.0 mg/kg, 2 hours",405 beats/minute
same,BP,"[1]; 5.0 mg/kg, 4 hours",152 mm Hg
same,HR,"[1]; 5.0 mg/kg, 4 hours",410 beats/minute
same,BP,"[1]; 5.0 mg/kg, 24 hours",170 mm Hg
same,HR,"[1]; 5.0 mg/kg, 24 hours",380 beats/minute
"CCC(C)(CC)NC(=NC#N)Nc1cccnc1 [P 1066, N""-cyano-N-(1-ethyl-1-methylpropyl)-N'-3-pyridylguanidine]",LD50,"in vivo; po, p.o. (mice), approximate",> 1000 mg/kg
same,BP,"[1]; 0.05 mg/kg, 2 hours",155 mm Hg
same,HR,"[1]; 0.05 mg/kg, 2 hours",462 beats/minute
same,BP,"[1]; 0.05 mg/kg, 4 hours",170 mm Hg
same,HR,"[1]; 0.05 mg/kg, 4 hours",417 beats/minute
same,BP,"[1]; 0.05 mg/kg, 24 hours",178 mm Hg
same,HR,"[1]; 0.05 mg/kg, 24 hours",413 beats/minute
same,BP,"[1]; 0.5 mg/kg, 2 hours",146 mm Hg
same,HR,"[1]; 0.5 mg/kg, 2 hours",437 beats/minute
same,BP,"[1]; 0.5 mg/kg, 4 hours",143 mm Hg
same,HR,"[1]; 0.5 mg/kg, 4 hours",413 beats/minute
same,BP,"[1]; 0.5 mg/kg, 24 hours",181 mm Hg
same,HR,"[1]; 0.5 mg/kg, 24 hours",413 beats/minute
same,BP,"[1]; 2.5 mg/kg, 2 hours",113 mm Hg
same,HR,"[1]; 2.5 mg/kg, 2 hours",386 beats/minute
same,BP,"[1]; 2.5 mg/kg, 4 hours",100 mm Hg
same,BP,"[1]; 2.5 mg/kg, 6 hours",114 mm Hg
same,HR,"[1]; 2.5 mg/kg, 6 hours",375 beats/minute
same,BP,"[1]; 2.5 mg/kg, 24 hours",152 mm Hg
same,HR,"[1]; 2.5 mg/kg, 24 hours",335 beats/minute
same,BP,"[1]; 10.0 mg/kg, 2 hours",< 100 mm Hg
same,BP,"[1]; 10.0 mg/kg, 4 hours",< 100 mm Hg
same,BP,"[1]; 10.0 mg/kg, 6 hours",< 100 mm Hg
same,BP,"[1]; 10.0 mg/kg, 24 hours",126 mm Hg
same,HR,"[1]; 10.0 mg/kg, 24 hours",336 beats/minute
"CCCC(C)(C)NC(=NC#N)Nc1cccnc1 [P 1067, N""-cyano-N-(1,1-dimethylbutyl)-N'-3-pyridylcuanidine]",LD50,in vivo; po,> 1000 mg/kg
same,BP,"[1]; 0.5 mg/kg, 2 hours",158 mm Hg
same,HR,"[1]; 0.5 mg/kg, 2 hours",440 beats/minute
same,BP,"[1]; 0.5 mg/kg, 4 hours",168 mm Hg
same,HR,"[1]; 0.5 mg/kg, 4 hours",413 beats/minute
same,BP,"[1]; 0.5 mg/kg, 24 hours",176 mm Hg
same,HR,"[1]; 0.5 mg/kg, 24 hours",408 beats/minute
"N=c1nc(N2CCCCC2)cc(N)n1O [Minoxidil, 6-Amino-1,2-dihydro-1-hydroxy-2-imino-4-piperid-1-ylpyrimidine, reference compound]",BP,"[1]; 0.5 mg/kg, 2 hours",161 mm Hg
same,HR,"[1]; 0.5 mg/kg, 2 hours",409 beats/minute
same,BP,"[1]; 0.5 mg/kg, 4 hours",153 mm Hg
same,HR,"[1]; 0.5 mg/kg, 4 hours",411 beats/minute
same,BP,"[1]; 0.5 mg/kg, 24 hours",167 mm Hg
same,HR,"[1]; 0.5 mg/kg, 24 hours",400 beats/minute
same,BP,"[1]; 1.0 mg/kg, 2 hours",158 mm Hg
same,HR,"[1]; 1.0 mg/kg, 2 hours",431 beats/minute
same,BP,"[1]; 1.0 mg/kg, 4 hours",146 mm Hg
same,HR,"[1]; 1.0 mg/kg, 4 hours",424 beats/minute
same,BP,"[1]; 1.0 mg/kg, 24 hours",169 mm Hg
same,HR,"[1]; 1.0 mg/kg, 24 hours",407 beats/minute
"CCC(C)(C)NC(=NC#N)Nc1cccnc1 [P 1075, N""-cyano-N-tert-pentyl-N'-3-pyridylguanidine]",LD50,"in vivo; po, p.o. (mice), approximate",1000 mg/kg
same,BP,"[1]; 0.05 mg/kg, 2 hours",105 mm Hg
same,HR,"[1]; 0.05 mg/kg, 2 hours",450 beats/minute
same,BP,"[1]; 0.05 mg/kg, 4 hours",102 mm Hg
same,HR,"[1]; 0.05 mg/kg, 4 hours",432 beats/minute
same,BP,"[1]; 0.05 mg/kg, 24 hours",164 mm Hg
same,HR,"[1]; 0.05 mg/kg, 24 hours",348 beats/minute
same,BP,"[2]; Dog I, 1 hour",72 mm Hg
same,HR,"[2]; Dog I, 1 hour",160 beats/minute
same,BP,"[2]; Dog I, 2 hours",75 mm Hg
same,HR,"[2]; Dog I, 2 hours",180 beats/minute
same,BP,"[2]; Dog I, 3 hours",85 mm Hg
same,HR,"[2]; Dog I, 3 hours",142 beats/minute
same,BP,"[2]; Dog I, 4 hours",95 mm Hg
same,HR,"[2]; Dog I, 4 hours",135 beats/minute
same,BP,"[2]; Dog II, 1 hour",82 mm Hg
same,HR,"[2]; Dog II, 1 hour",175 beats/minute
same,BP,"[2]; Dog II, 2 hours",74 mm Hg
same,HR,"[2]; Dog II, 2 hours",185 beats/minute
same,BP,"[2]; Dog II, 3 hours",92 mm Hg
same,HR,"[2]; Dog II, 3 hours",163 beats/minute
same,BP,"[2]; Dog II, 4 hours",115 mm Hg
same,HR,"[2]; Dog II, 4 hours",140 beats/minute
same,BP,"[2]; Dog III, 1 hour",95 mm Hg
same,HR,"[2]; Dog III, 1 hour",185 beats/minute
same,BP,"[2]; Dog III, 2 hours",90 mm Hg
same,HR,"[2]; Dog III, 2 hours",175 beats/minute
same,BP,"[2]; Dog III, 3 hours",104 mm Hg
same,HR,"[2]; Dog III, 3 hours",149 beats/minute
same,BP,"[2]; Dog III, 4 hours",110 mm Hg
same,HR,"[2]; Dog III, 4 hours",140 beats/minute
